Reference: US20240269145A1, “USE OF INDOLE COMPOUND AS INHIBITORS OF FERROPTOSIS” (MITOIMMUNE THERAPEUTICS INC., priority 2023, published 2024)

Key:
Format in all cases: cell-based
[1] = tested on: HT-22 cells; experiment: Cytosolic lipid ROS after erastin, Experimental Example 3-2; details: HT-22, erastin 1 μM, compound at 10 μM
Experimental: [The source words this procedure for another cell line and says it was used here with some conditions changed.] Experimental Example 3-1: To confirm the protective effect against cytosolic lipid reactive oxygen species in lung epithelial cells, 2×10^5 MLE-12 cells were dispensed into each well of a 12-well plate and cultured for 18 to 24 hours. Each well was treated with Example Compound 1 and ferrostatin-1, which were diluted so that their final concentration became 0.01, 0.1, 1, and 10 μM, and culture was performed for 15 minutes. Afterwards, the cells were treated so that the final concentration of RSL3 became 1 μM, and cultured for 2 hours. To confirm the inhibitory effect against cytosolic lipid reactive oxygen species, BODIPY™ 581/591 C11 (lipid peroxidation sensor) [Invitrogen™; D3861] was used. According to the manufacturer's experimental method, BODIPY™ 581/591 C11 was diluted in the cell culture medium so that the final concentration became 5 μM, and the cells were treated therewith and allowed to react for 30 minutes to perform fluorescent staining. The MLE-12 cells fluorescently stained with BODIPY™ 581/591 C11 were detached from the 12-well plate using 0.25% Trypsin-EDTA and transferred to a microtube, and the fluorescence (excitation/absorption 500 to 650 nm/510 to 665 nm) was measured using BD FACSLyric™ to calculate the rate of change compared to the control group. […]

[2] = tested on: H9C2 cells; experiment: Mitochondrial morphological changes (TEM) after erastin; details: H9C2, 5 μM erastin, 10 μM compound, 5 hours
Experimental: To confirm whether Example Compound 1 may inhibit mitochondrial morphological changes due to ferroptosis, an experiment was performed using a transmission electron microscope (TEM). To collect cardiac cell samples, 1.3×10^6 H9C2 cells were cultured in a 150 mm cell culture dish for 4 days, and the culture medium was replaced with fresh culture medium on the second day. After treating the cells with Example Compound 1 at a final concentration of 10 µM for 30 minutes, an erastin-only treatment group was treated with a culture medium including 5 μM erastin; an erastin-Example Compound 1 treatment group was treated with a culture medium including 5 μM erastin and 10 μM Example Compound 1; and the V.C group was treated with a culture medium including the same amount of DMSO, and each group was treated for 5 hours. Afterwards, the supernatant was discarded, and the cells were washed with a 37° C. PBS solution three times. 10 mL of a 2.5% glutaraldehyde solution diluted in PBS was added and treated at room temperature for 1 hour. After washing with PBS solution three times, the remaining PBS solution was completely removed using an aspirator. 1 mL of PBS solution was added to recover the cells with a plastic scraper, and the cells were transferred to a 1.5 mL tube. Cells were allowed to settle using a centrifuge (3000 rpm) for 5 minutes. […]

[3] = tested on: H9C2 cells; experiment: Mitochondrial iron ion accumulation (Mito-FerroGreen, images) after erastin; details: H9C2, erastin 5 μM, 5 hr; Example Compound 1 1 μM, DFO 100 μM
Experimental: [The source words this procedure for another cell line and says it was used here with some conditions changed.] Experimental Example 9-1: To confirm the inhibitory effect against mitochondrial iron ion accumulation in lung epithelial cells and adrenal medulla cells, 3×10^5 MLE-12 cells and PC-12 cells were each dispensed into a confocal dish and cultured for 18 to 24 hours. Each well was treated with Example Compound 1 and DFO, which were diluted so that their final concentration became 1 μM and 10 μM, respectively, and culture was performed for 20 minutes. Afterwards, the MLE-12 cells were treated with RSL3 so that the final concentration became 1 μM, and cultured for 1 hour and 30 minutes, and the PC-12 cells were treated with RSL3 so that the final concentration became 0.3 μM, and cultured for 30 minutes. To confirm the inhibitory effect against mitochondrial iron ion accumulation, Mito-FerroGreen [DOJINDO; M489] was used. According to the manufacturer's experimental method, Mito-FerroGreen was diluted in the cell culture medium so that the final concentration became 1 μM, and the cells were treated therewith and allowed to react for 30 minutes to perform fluorescent staining. The cells fluorescently stained with Mito-FerroGreen were observed using a fluorescence microscope [Carl Zeiss; Axio Observer 7] to investigate the change in fluorescence (excitation/absorption 450 to 490 nm/500 to 550 nm) compared to the control group (RSL3 untreated group). […]

[4] = tested on: MLE-12 cells; experiment: Mitochondrial iron ion accumulation (Mito-FerroGreen, images) after RSL3; details: MLE-12, RSL3 1 μM, 1 hour 30 minutes; Example Compound 1 1 μM, DFO 10 μM
Experimental: (§1) Experimental Example 9-1: To confirm the inhibitory effect against mitochondrial iron ion accumulation in lung epithelial cells and adrenal medulla cells, 3×10^5 MLE-12 cells and PC-12 cells were each dispensed into a confocal dish and cultured for 18 to 24 hours. Each well was treated with Example Compound 1 and DFO, which were diluted so that their final concentration became 1 μM and 10 μM, respectively, and culture was performed for 20 minutes. Afterwards, the MLE-12 cells were treated with RSL3 so that the final concentration became 1 μM, and cultured for 1 hour and 30 minutes, and the PC-12 cells were treated with RSL3 so that the final concentration became 0.3 μM, and cultured for 30 minutes. To confirm the inhibitory effect against mitochondrial iron ion accumulation, Mito-FerroGreen [DOJINDO; M489] was used. According to the manufacturer's experimental method, Mito-FerroGreen was diluted in the cell culture medium so that the final concentration became 1 μM, and the cells were treated therewith and allowed to react for 30 minutes to perform fluorescent staining. The cells fluorescently stained with Mito-FerroGreen were observed using a fluorescence microscope [Carl Zeiss; Axio Observer 7] to investigate the change in fluorescence (excitation/absorption 450 to 490 nm/500 to 550 nm) compared to the control group (RSL3 untreated group).

[5] = tested on: PC-12 cells; experiment: as above; details: PC-12, RSL3 0.3 μM, 30 minutes; Example Compound 1 1 μM, DFO 10 μM
Experimental: as §1

O=S1(=O)CCN(Cc2cc(NC3CCOCC3)c3[nH]c(-c4ccccc4)cc3c2)CC1 [Example 1, 5-[(1,1-dioxido-4-thiomorpholinyl)methyl]-2-phenyl-N-(tetrahydro-2H-pyran-4-yl)-1H-indole-7-amine]
cytosolic lipid reactive oxygen species increased by erastin [1]: inhibited
cytosolic lipid reactive oxygen species increased by erastin ([1]; 4 hours and 8 hours after treatment): effectively inhibited
mitochondrial morphological changes (size decrease, cristae loss, outer membrane collapse), TEM [2]: alleviated
mitochondrial iron ion accumulation (images) [3]: inhibited
mitochondrial iron ion accumulation (images) [4]: decrease was confirmed
mitochondrial iron ion accumulation (images) [5]: decrease was confirmed
